In paper PMC6933783 (ACS Omega, 2019):

Legend:
MAO-B = molecular target: T1, MAO-B (Homo sapiens, UniProt P27338); assay: Reversibility of MAO-B inhibition; assay type: biochemical; conditions: dilution assay, 30 min preincubation, Figure S3
T1 sequence (P27338 1-520): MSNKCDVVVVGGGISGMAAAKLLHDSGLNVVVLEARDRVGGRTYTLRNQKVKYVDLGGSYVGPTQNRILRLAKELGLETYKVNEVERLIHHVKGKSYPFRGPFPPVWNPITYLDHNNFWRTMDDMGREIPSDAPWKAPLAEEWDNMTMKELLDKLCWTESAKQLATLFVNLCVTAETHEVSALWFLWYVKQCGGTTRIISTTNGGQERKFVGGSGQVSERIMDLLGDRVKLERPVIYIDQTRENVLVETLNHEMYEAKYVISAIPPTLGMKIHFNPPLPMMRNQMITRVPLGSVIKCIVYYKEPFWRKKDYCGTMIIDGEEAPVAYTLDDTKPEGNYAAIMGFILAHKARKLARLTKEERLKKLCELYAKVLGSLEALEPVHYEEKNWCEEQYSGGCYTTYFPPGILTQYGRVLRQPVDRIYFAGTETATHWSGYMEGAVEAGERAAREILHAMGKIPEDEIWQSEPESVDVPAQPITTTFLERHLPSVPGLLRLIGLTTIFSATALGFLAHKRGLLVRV

[1] = molecular target: human acetylcholinesterase (AChE) (Homo sapiens, UniProt P22303); assay: Cholinesterase assay; assay type: biochemical; conditions: for αKi ± SE, AChE: uncompetitive contribution, Lineweaver-Burk plots
Chain of human acetylcholinesterase (AChE) (P22303 32-617 isoform P22303-2 limits assumed): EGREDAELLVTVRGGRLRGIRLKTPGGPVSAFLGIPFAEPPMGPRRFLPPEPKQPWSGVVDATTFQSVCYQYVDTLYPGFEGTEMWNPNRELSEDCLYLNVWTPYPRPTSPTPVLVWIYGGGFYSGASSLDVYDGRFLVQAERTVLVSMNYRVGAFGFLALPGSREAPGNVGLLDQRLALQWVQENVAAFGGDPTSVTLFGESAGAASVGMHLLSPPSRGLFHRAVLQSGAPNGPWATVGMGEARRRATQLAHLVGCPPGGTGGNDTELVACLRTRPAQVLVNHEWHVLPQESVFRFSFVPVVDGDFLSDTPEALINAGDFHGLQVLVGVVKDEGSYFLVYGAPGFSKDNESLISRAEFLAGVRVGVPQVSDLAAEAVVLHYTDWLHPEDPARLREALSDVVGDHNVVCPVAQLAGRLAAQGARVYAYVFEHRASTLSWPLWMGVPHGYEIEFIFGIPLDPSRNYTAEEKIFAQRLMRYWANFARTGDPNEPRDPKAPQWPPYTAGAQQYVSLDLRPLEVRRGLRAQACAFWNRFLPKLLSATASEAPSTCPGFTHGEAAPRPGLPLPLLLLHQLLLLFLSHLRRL

Structure (SMILES)	reversibility of MAO-B inhibition (MAO-B)	Ki [1] [µM]	αKi ± SE, AChE [1] [µM]
O=c1ccoc2ccc(OCCCCN3CCCCC3)cc12 [Compound 7, 6-(4-(piperidin-1-yl)butoxy)-4H-chromen-4-one]	reversibility of MAO-B inhibition was exemplarily demonstrated	–	–
CN1CCN(CCCCOc2ccc3occc(=O)c3c2)CC1 [Compound 15, 6-(4-(4-Methylpiperazin-1-yl)butoxy)-4H-chromen-4-one]	–	2.06 ± 0.56	5.36 ± 0.70
C[C@@H]1CCCN1CCCCOc1ccc2occc(=O)c2c1 [Compound 27]	–	9.23 ± 5.01	19.0 ± 4.1
